The source of these data is patent US20140256945A1, “PHOSPHONIC ACID COMPOUNDS AS SPHINGOSINE-1-PHOSPHATE RECEPTOR MODULATORS” (Allergan, Inc., priority 2013, published 2014).

One experiment concerns the target T1, human S1P1 receptor (Homo sapiens, UniProt P21453).
T1 construct: expressed in transfected cells; membranes used
The experiment in a line: GTP γ35S binding assay for S1P1 activity. It is filed as biochemical. The following applies: membranes of cells stably expressing S1P1 receptor, agonist potency. On the procedure: Compounds were tested for S1P1 activity using the GTP γ^35S binding assay. These compounds may be assessed for their ability to activate or block activation of the human S1P1 receptor in cells stably expressing the S1P1 receptor.
GTP γ^35S binding was measured in the medium containing (mM) HEPES 25, pH 7.4, MgCl2 10, NaCl 100, dithitothreitol 0.5, digitonin 0.003%, 0.2 nM GTP γ^35S, and 5 μg membrane protein in a volume of 150 μl. Test compounds were included in the concentration range from 0.08 to 5,000 nM unless indicated otherwise. Membranes were incubated with 100 μM 5′-adenylylimmidodiphosphate for 30 min, and subsequently with 10 μM GDP for 10 min on ice. Drug solutions and membrane were mixed, and then reactions were initiated by adding GTP γ^35S and continued for 30 min at 25° C. Reaction mixtures were filtered over Whatman GF/B filters under vacuum, and washed three times with 3 mL of ice-cold buffer (HEPES 25, pH7.4, MgCl2 10 and NaCl 100). Filters were dried and mixed with scintillant, and counted for ^35S activity using a β-counter. Agonist-induced GTP γ^35S binding was obtained by subtracting that in the absence of agonist. Binding data were analyzed using a non-linear regression method. In case of antagonist assay, the reaction mixture contained 10 nM S1P in the presence of test antagonist at concentrations ranging from 0.08 to 5000 nM.

A further experiment has as its system blood lymphocytes. The experiment in a line: Lymphopenia Assay in Mice. In kind it is in vivo. The procedure: Test drugs are prepared in a solution containing 3% (w/v) 2-hydroxy propyl β-cyclodextrin (HPBCD) and 1% DMSO to a final concentration of 1 mg/ml, and subcutaneously injected to female C57BL6 mice (CHARLES RIVERS) weighing 20-25 g at the dose of 0.5 to 10 mg/Kg. Blood samples are obtained by puncturing the submandibular skin with a Goldenrod animal lancet at 5, 24, 48, and 72 hrs post drug application. Blood is collected into microvettes (SARSTEDT) containing EDTA tripotassium salt. Lymphocytes in blood samples are counted using a HEMAVET Multispecies Hematology System, HEMAVET HV950FS (Drew Scientific Inc.). • (Hale, J. et al Bioorg.& Med. Chem. Lett. 14 (2004) 3351).
A lymphopenia assay in mice; as previously described, was employed to measure the in vivo blood lymphocyte depletion after dosing with the test compound (3-{[2,5-difluoro-4-(6-phenylhexyl)benzyl]amino}propyl)phosphonic acid Compound-10. This S1P1 modulator, (3-{[2,5-difluoro-4-(6-phenylhexyl)benzyl]amino}propyl)phosphonic acid Compound-10 is useful for S1P-related diseases and exemplified by the lymphopenia in vivo response. […] Lymphocytes in blood samples were counted using a HEMAVET Multispecies Hematology System, HEMAVET HV950FS (Drew Scientific Inc.). […]

T1 sequence (P21453 whole entry): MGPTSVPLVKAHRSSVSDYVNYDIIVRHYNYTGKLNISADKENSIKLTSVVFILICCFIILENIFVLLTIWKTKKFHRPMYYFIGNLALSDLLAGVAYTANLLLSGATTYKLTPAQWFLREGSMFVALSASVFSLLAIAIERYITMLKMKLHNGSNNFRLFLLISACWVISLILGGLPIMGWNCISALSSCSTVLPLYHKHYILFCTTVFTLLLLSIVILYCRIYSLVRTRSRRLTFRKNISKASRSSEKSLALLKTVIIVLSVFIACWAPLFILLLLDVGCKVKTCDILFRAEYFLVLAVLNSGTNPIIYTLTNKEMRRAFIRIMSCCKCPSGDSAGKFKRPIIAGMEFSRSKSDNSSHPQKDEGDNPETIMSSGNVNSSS

Take `O=P(O)(O)CCCNCc1ccc(C#CCCCCc2ccccc2)c(F)c1` [Compound 1, (3-{[3-fluoro-4-(6-phenylhex-1-yn-1-yl)benzyl]amino}propyl)phosphonic acid]: the midpoint of the response on human S1P1 receptor, the EC50, lay at 4.3 nM. `Cc1cc(CNCCCP(=O)(O)O)ccc1C#CCCCCc1ccccc1` [Compound 2, (3-{[3-methyl-4-(6-phenylhex-1-yn-1-yl)benzyl]amino}propyl)phosphonic acid] yielded an EC50 on human S1P1 receptor of 3.4 nM. As to `O=P(O)(O)CCCNCc1ccc(C#CCCCCc2ccccc2)cc1` [Compound 3, (3-{[4-(6-phenylhex-1-yn-1-yl)benzyl]amino}propyl)phosphonic acid], the response at human S1P1 receptor was half-maximal at 26.7 nM (EC50). Consider `O=P(O)(O)CCCNCc1ccc(C#CCCCCc2ccccc2)c(Br)c1` [Compound 4, (3-{[3-bromo-4-(6-phenylhex-1-yn-1-yl)benzyl]amino}propyl)phosphonic acid], for which the concentration giving a half-maximal response (EC50) on human S1P1 receptor stood at 22.1 nM. As to `O=P(O)(O)CCCNCc1ccc(CCCCCCc2ccccc2)c(F)c1` [Compound 5, (3-{[3-fluoro-4-(6-phenylhexyl)benzyl]amino}propyl)phosphonic acid], a half-maximal effect at human S1P1 receptor (EC50) was put at 4.2 nM. The same measure, in the same setting: the value for `Cc1cc(CNCCCP(=O)(O)O)ccc1CCCCCCc1ccccc1` [Compound 6, (3-{[3-methyl-4-(6-phenylhexyl)benzyl]amino}propyl)phosphonic acid] was 0.7 nM; that for `O=P(O)(O)CCCNCc1ccc(CCCCCCc2ccccc2)c(C(F)(F)F)c1` [Compound 7, (3-{[4-(6-phenylhexyl)-3-(trifluoromethyl)benzyl]amino}propyl)phosphonic acid] was 11.2 nM; that for `O=P(O)(O)CCCNCc1ccc(CCCCCCc2ccccc2)c(Cl)c1` [Compound 8, (3-{[3-chloro-4-(6-phenylhexyl)benzyl]amino}propyl)phosphonic acid] was 0.5 nM. For the compound `O=P(O)(O)CCCNCc1ccc(CCCCCCc2ccccc2)cc1` [Compound 9, (3-{[4-(6-phenylhexyl)benzyl]amino}propyl)phosphonic acid], the half-maximal effective concentration (EC50) at human S1P1 receptor was 6.8 nM. At human S1P1 receptor, `O=P(O)(O)CCCNCc1cc(F)c(CCCCCCc2ccccc2)cc1F` [Compound 10, (3-{[2,5-difluoro-4-(6-phenylhexyl)benzyl]amino}propyl)phosphonic acid] returned an EC50 of 1.9 nM. The “lymphocyte count (number of lymphocytes)” value with blood lymphocytes (female C57BL6 mice, 0.5 mg/Kg subcutaneous, after 5 hours) is < 1 10^3/μL blood. Also, the Lymphopenia result in the experiment on blood lymphocytes (mice, 0.5 mg/kg, 5, 24, 48, 72 hours (FIG. 1)) is “Lymphopenia was induced”.

For `O=C(CCCCc1ccccc1)Nc1ccc(CNCCCP(=O)(O)O)cc1Br` [Compound 11, [3-({3-bromo-4-[(5-phenylpentanoyl)amino]benzyl}amino)propyl]phosphonic acid], the EC50 on human S1P1 receptor is 105 nM. `O=P(O)(O)CCCNCc1ccc(NCCCCCc2ccccc2)c(Br)c1` [Compound 12, [3-({3-bromo-4-[(5-phenylpentyl)amino]benzyl}amino)propyl]phosphonic acid] displayed an EC50 on human S1P1 receptor of 4.1 nM.
